Test results from ChEMBL document CHEMBL5579818, “Identification of 3-(9H-carbazol-9-yl)-2-(1,3-dioxoisoindolin-2-yl)propanoic acids as promising DNMT1 inhibitors” (Eur J Med Chem, 2024).
Blank lines part the entries; values can stand above or below the compound they belong to. Activity calls are given as the source filed them. The rule behind the calls is not given here.

Legend:
[1] = molecular target: T1, DNA (cytosine-5)-methyltransferase 1 (Homo sapiens, UniProt P26358); test: Binding affinity to human DNMT1 expressed in Escherichia coli assessed as response unit at 10 uM by SPR analysis
T1 sequence (P26358 whole entry): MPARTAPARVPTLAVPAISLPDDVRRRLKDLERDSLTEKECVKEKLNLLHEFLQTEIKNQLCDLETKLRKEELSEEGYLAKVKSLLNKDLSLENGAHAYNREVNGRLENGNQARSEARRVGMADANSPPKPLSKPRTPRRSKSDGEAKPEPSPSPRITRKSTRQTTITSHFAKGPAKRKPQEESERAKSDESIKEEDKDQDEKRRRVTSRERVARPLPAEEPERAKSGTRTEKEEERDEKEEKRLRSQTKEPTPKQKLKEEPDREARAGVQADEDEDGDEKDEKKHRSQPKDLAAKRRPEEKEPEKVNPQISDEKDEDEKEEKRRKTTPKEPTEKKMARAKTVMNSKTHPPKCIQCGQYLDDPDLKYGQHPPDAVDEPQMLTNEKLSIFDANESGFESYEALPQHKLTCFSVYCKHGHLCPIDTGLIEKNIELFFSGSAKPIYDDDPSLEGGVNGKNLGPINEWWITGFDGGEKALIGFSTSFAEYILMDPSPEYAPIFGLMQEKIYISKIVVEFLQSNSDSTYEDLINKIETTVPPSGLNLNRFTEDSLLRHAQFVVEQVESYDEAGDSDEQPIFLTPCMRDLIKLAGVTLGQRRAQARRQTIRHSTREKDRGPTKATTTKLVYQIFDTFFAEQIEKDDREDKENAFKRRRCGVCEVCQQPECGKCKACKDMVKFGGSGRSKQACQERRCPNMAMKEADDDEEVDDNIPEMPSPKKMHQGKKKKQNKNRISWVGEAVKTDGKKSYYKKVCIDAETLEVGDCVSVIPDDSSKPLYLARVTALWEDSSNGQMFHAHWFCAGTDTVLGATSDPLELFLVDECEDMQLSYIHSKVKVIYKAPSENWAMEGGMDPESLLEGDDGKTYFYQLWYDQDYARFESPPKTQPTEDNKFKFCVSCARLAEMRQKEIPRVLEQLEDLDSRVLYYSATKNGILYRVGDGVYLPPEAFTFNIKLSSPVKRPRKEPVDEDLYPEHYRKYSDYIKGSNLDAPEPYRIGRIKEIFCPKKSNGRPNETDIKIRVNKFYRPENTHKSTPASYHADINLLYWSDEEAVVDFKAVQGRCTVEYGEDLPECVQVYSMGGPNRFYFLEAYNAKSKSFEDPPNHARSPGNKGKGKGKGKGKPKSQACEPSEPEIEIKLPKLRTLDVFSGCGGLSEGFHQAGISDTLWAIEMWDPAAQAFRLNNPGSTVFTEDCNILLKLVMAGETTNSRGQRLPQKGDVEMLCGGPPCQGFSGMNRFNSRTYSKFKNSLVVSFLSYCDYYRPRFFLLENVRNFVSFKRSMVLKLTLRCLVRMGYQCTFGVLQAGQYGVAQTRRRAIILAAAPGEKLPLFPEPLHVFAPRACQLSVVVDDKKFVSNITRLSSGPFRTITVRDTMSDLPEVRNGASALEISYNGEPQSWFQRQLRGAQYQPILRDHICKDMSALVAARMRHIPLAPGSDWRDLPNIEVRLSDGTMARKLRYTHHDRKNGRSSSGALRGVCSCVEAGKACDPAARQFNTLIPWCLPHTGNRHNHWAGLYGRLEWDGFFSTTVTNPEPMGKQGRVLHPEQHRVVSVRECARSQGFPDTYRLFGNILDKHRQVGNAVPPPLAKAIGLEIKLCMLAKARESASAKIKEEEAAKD

K562 [2] = test: Antiproliferative activity against human K562 cells at 100 uM incubated for 48 hrs by MTT assay; assay type: functional
[3] = molecular target: T1, DNA (cytosine-5)-methyltransferase 1; test: Binding affinity to human DNMT1 expressed in Escherichia coli assessed as equilibrium dissociation constant by SPR analysis
HeLa [4] = test: Antiproliferative activity against human HeLa cells at 100 uM incubated for 48 hrs by MTT assay; assay type: functional
[5] = molecular target: T1, DNA (cytosine-5)-methyltransferase 1; test: Inhibition of DNMT1 (unknown origin) at 250 uM using semi-methylated DNA substrate preincubated for 15 mins followed by substrate and [3H-SAM] addition and measured after 60 mins by microbeta scintillation counting assay relative to control; conditions: time 75.0 min
K562 [6] = test: Antiproliferative activity against human K562 cells incubated for 48 hrs by MTT assay; assay type: functional, cell-based; conditions: K562, 48 h
SiHa [7] = test: Antiproliferative activity against human SiHa cells incubated for 48 hrs by MTT assay; assay type: functional, cell-based
HeLa [8] = test: Antiproliferative activity against human HeLa cells incubated for 48 hrs by MTT assay; assay type: functional, cell-based
A2780 [9] = test: Antiproliferative activity against human A2780 cells at 100 uM incubated for 48 hrs by MTT assay; assay type: functional
A2780 [10] = test: Antiproliferative activity against human A2780 cells incubated for 48 hrs by MTT assay; assay type: functional, cell-based; conditions: A2780, 48 h
K562 [11] = test: Induction of apoptosis in human K562 cells assessed as viable cells at 20 uM incubated for 48 hrs by Annexin-V/PI staining based flow cytometry assay (reference value: 92.12%); assay type: functional; conditions: read-out: Activity
K562 [12] = test: Induction of cell cycle arrest in human K562 cells assessed as S phase cells at 40 uM incubated for 48 hrs by PI staining based flow cytometry assay (reference value: 24.10 to 26.83%); assay type: functional
K562 [13] = test: Induction of apoptosis in human K562 cells assessed as viable cells at 40 uM incubated for 48 hrs by Annexin-V/PI staining based flow cytometry assay (reference value: 92.12%); assay type: functional; conditions: read-out: Activity
K562 [14] = test: Induction of apoptosis in human K562 cells assessed as early apoptotic cells at 10 uM incubated for 48 hrs by Annexin-V/PI staining based flow cytometry assay (reference value: 3.18%); assay type: functional
K562 [15] = test: Upregulation of TRAIL-R2/Dr5 expression in human K562 cells; assay type: functional, cell-based
K562 [16] = test: Induction of cell cycle arrest in human K562 cells assessed as G2/M phase cells at 40 uM incubated for 48 hrs by PI staining based flow cytometry assay (reference value: 37.35 to 45.32%); assay type: functional
K562 [17] = test: Induction of cell cycle arrest in human K562 cells assessed as S phase cells at 10 uM incubated for 48 hrs by PI staining based flow cytometry assay (reference value: 24.10 to 26.83%); assay type: functional
K562 [18] = test: Induction of apoptosis in human K562 cells assessed as necrotic cells at 20 uM incubated for 48 hrs by Annexin-V/PI staining based flow cytometry assay (reference value: 0.34%); assay type: functional
K562 [19] = test: Induction of apoptosis in human K562 cells assessed as late apoptotic cells at 40 uM incubated for 48 hrs by Annexin-V/PI staining based flow cytometry assay (reference value: 3.73%); assay type: functional
K562 [20] = test: Induction of apoptosis in human K562 cells assessed as viable cells at 10 uM incubated for 48 hrs by Annexin-V/PI staining based flow cytometry assay (reference value: 92.12%); assay type: functional; conditions: read-out: Activity
K562 [21] = test: Induction of cell cycle arrest in human K562 cells assessed as S phase cells at 20 uM incubated for 48 hrs by PI staining based flow cytometry assay (reference value: 24.10 to 26.83%); assay type: functional
K562 [22] = test: Induction of cell cycle arrest in human K562 cells assessed as G2/M phase cells at 10 uM incubated for 48 hrs by PI staining based flow cytometry assay (reference value: 37.35 to 45.32%); assay type: functional
K562 [23] = test: Induction of cell cycle arrest in human K562 cells assessed as G0-G1 phase cells at 10 uM incubated for 48 hrs by PI staining based flow cytometry assay (reference value: 33.58 to 35.82%); assay type: functional
K562 [24] = test: Induction of apoptosis in human K562 cells assessed as necrotic cells at 10 uM incubated for 48 hrs by Annexin-V/PI staining based flow cytometry assay (reference value: 0.34%); assay type: functional
K562 [25] = test: Induction of cell cycle arrest in human K562 cells assessed as G0-G1 phase cells at 40 uM incubated for 48 hrs by PI staining based flow cytometry assay (reference value: 33.58 to 35.82%); assay type: functional
K562 [26] = test: Induction of apoptosis in human K562 cells assessed as necrotic cells at 40 uM incubated for 48 hrs by Annexin-V/PI staining based flow cytometry assay (reference value: 0.34%); assay type: functional
K562 [27] = test: Induction of cell cycle arrest in human K562 cells assessed as G2/M phase cells at 20 uM incubated for 48 hrs by PI staining based flow cytometry assay (reference value: 37.35 to 45.32%); assay type: functional
K562 [28] = test: Induction of apoptosis in human K562 cells assessed as late apoptotic cells at 20 uM incubated for 48 hrs by Annexin-V/PI staining based flow cytometry assay (reference value: 3.73%); assay type: functional
K562 [29] = test: Induction of cell cycle arrest in human K562 cells assessed as G0-G1 phase cells at 20 uM incubated for 48 hrs by PI staining based flow cytometry assay (reference value: 33.58 to 35.82%); assay type: functional
K562 [30] = test: Induction of apoptosis in human K562 cells assessed as late apoptotic cells at 10 uM incubated for 48 hrs by Annexin-V/PI staining based flow cytometry assay (reference value: 3.73%); assay type: functional
K562 [31] = test: Induction of apoptosis in human K562 cells assessed as early apoptotic cells at 20 uM incubated for 48 hrs by Annexin-V/PI staining based flow cytometry assay (reference value: 3.18%); assay type: functional
K562 [32] = test: Induction of apoptosis in human K562 cells assessed as early apoptotic cells at 40 uM incubated for 48 hrs by Annexin-V/PI staining based flow cytometry assay (reference value: 3.18%); assay type: functional
K562 [33] = test: Upregulation of TNFR-1 expression in human K562 cells; assay type: functional, cell-based
K562 [34] = test: Upregulation of CDKN1A/P21 expression in human K562 cells; assay type: functional, cell-based
[35] = molecular target: T1, DNA (cytosine-5)-methyltransferase 1; test: Inhibition of DNMT1 (unknown origin) using semi-methylated DNA substrate preincubated for 15 mins followed by substrate and [3H-SAM] addition and measured after 60 mins by microbeta scintillation counting assay
K562 [36] = test: Induction of apoptosis in human K562 cells assessed as early apoptotic cells at 60 uM incubated for 48 hrs by Annexin-V/PI staining based flow cytometry assay (reference value: 3.18%); assay type: functional
K562 [37] = test: Induction of apoptosis in human K562 cells assessed as necrotic cells at 60 uM incubated for 48 hrs by Annexin-V/PI staining based flow cytometry assay (reference value: 0.34%); assay type: functional
K562 [38] = test: Induction of apoptosis in human K562 cells assessed as late apoptotic cells at 60 uM incubated for 48 hrs by Annexin-V/PI staining based flow cytometry assay (reference value: 3.73%); assay type: functional
K562 [39] = test: Induction of apoptosis in human K562 cells assessed as viable cells at 60 uM incubated for 48 hrs by Annexin-V/PI staining based flow cytometry assay (reference value: 92.12%); assay type: functional; conditions: read-out: Activity
K562 [40] = test: Induction of cell cycle arrest in human K562 cells assessed as G2/M phase cells at 60 uM incubated for 48 hrs by PI staining based flow cytometry assay (reference value: 37.35 to 45.32%); assay type: functional
K562 [41] = test: Induction of cell cycle arrest in human K562 cells assessed as G0-G1 phase cells at 60 uM incubated for 48 hrs by PI staining based flow cytometry assay (reference value: 33.58 to 35.82%); assay type: functional
K562 [42] = test: Induction of cell cycle arrest in human K562 cells assessed as S phase cells at 60 uM incubated for 48 hrs by PI staining based flow cytometry assay (reference value: 24.10 to 26.83%); assay type: functional
[43] = molecular target: T1, DNA (cytosine-5)-methyltransferase 1; test: Binding affinity to human DNMT1 in presence of 10 uM SAM by SPR analysis
[44] = molecular target: T1, DNA (cytosine-5)-methyltransferase 1; test: Binding affinity to human DNMT1 expressed in Escherichia coli assessed as binding constant by SPR analysis
SiHa [45] = test: Antiproliferative activity against human SiHa cells at 100 uM incubated for 48 hrs by MTT assay; assay type: functional

SMILES: O=C(O)C(Cn1c2ccc(Cl)cc2c2cc(Cl)cc(Cl)c21)N1C(=O)c2ccccc2C1=O (racemic)
Activity [1]: 65.5 RU
Activity (K562 [2]): 91%
Kd [3]: 0.16 µM
Activity (HeLa [4]): 52%
inhibition [5]: > 75%
IC50 (K562 [6]): 45.8 µM
IC50 (SiHa [7]): 78 µM
IC50 (HeLa [8]): 97.6 µM
Activity (A2780 [9]): 59%
IC50 (A2780 [10]): 72.8 µM

SMILES: CC(C)(C)c1ccc2c(c1)c1cc(C(C)(C)C)ccc1n2C[C@@H](C(=O)O)N1C(=O)c2ccccc2C1=O
viability at 20 µM (K562 [11]): 90.2%
Activity (K562 [12]): 22.3%
viability at 40 µM (K562 [13]): 3.07%
Activity (K562 [14]): 1.39%
Kd [3]: 0.679 µM
Activity (K562 [15]): Active
Activity (K562 [16]): 16.56%
Activity (K562 [17]): 26.12%
Activity (K562 [18]): 0.56%
Activity (K562 [19]): 94.09%
viability at 10 µM (K562 [20]): 86.2%
Activity (K562 [21]): 21.5%
Activity (K562 [22]): 38.67%
Activity (K562 [23]): 34.61%
IC50 (K562 [6]): 15.8 µM
Activity (K562 [24]): 0.37%
Activity (K562 [25]): 61.14%
Activity (K562 [26]): 1.47%
IC50 (SiHa [7]): 25.6 µM
IC50 (HeLa [8]): 66.9 µM
Activity (K562 [27]): 23.67%
Activity (K562 [28]): 6.5%
Activity (K562 [29]): 54.77%
Activity (K562 [30]): 2.07%
Activity (K562 [31]): 2.78%
Activity (K562 [32]): 1.36%
Activity (K562 [33]): Active
Activity (K562 [34]): Active
IC50 [35]: 8.15 µM
IC50 (A2780 [10]): 32.9 µM

SMILES: CC(C)(C)c1ccc2c(c1)c1cc(C(C)(C)C)ccc1n2C[C@H](C(=O)O)N1C(=O)c2ccccc2C1=O
Kd [3]: 0.666 µM
IC50 (K562 [6]): 17 µM
IC50 (SiHa [7]): 54.9 µM
IC50 (HeLa [8]): 59.9 µM
IC50 [35]: 17.3 µM
IC50 (A2780 [10]): 34.6 µM

SMILES: O=C(O)[C@H](Cn1c2ccc(Cl)cc2c2cc(Cl)cc(Cl)c21)N1C(=O)c2ccccc2C1=O
viability at 20 µM (K562 [11]): 92.9%
Activity (K562 [12]): 21.62%
viability at 40 µM (K562 [13]): 93.7%
Kd [3]: 0.183 µM
Activity (K562 [15]): Active
Activity (K562 [16]): 27.43%
Activity (K562 [18]): 0.04%
Activity (K562 [19]): 4.25%
Activity (K562 [21]): 24.1%
IC50 (K562 [6]): 43.9 µM
Activity (K562 [25]): 50.95%
Activity (K562 [36]): 4.28%
Activity (K562 [37]): 1.74%
Activity (K562 [38]): 27.24%
Activity (K562 [26]): 0.29%
viability at 60 µM (K562 [39]): 16.7%
IC50 (SiHa [7]): 58.6 µM
IC50 (HeLa [8]): 96.8 µM
Activity (K562 [27]): 33%
Activity (K562 [28]): 3.16%
Activity (K562 [40]): 20.78%
Activity (K562 [29]): 35.18%
Activity (K562 [41]): 61.74%
Activity (K562 [31]): 3.9%
Activity (K562 [42]): 17.4%
Activity (K562 [32]): 1.75%
Activity (K562 [33]): Active
Activity (K562 [34]): Active
IC50 [35]: 40 µM
IC50 (A2780 [10]): 78.9 µM

SMILES: O=C(O)C(Cn1c2ccc(Br)cc2c2cc(Br)ccc21)N1C(=O)c2ccccc2C1=O (racemic)
Kd [3]: 1.16 µM
Kd [43]: 4.09 µM

SMILES: O=C(O)C(Cn1c2ccccc2c2cc(OCC3CO3)ccc21)N1C(=O)c2ccccc2C1=O (racemic)
Activity (K562 [2]): <5%
Activity (HeLa [4]): <5%
inhibition [5]: < 50%
Activity (A2780 [9]): <5%
Activity (SiHa [45]): <5%

SMILES: O=C(O)[C@@H](Cn1c2ccc(Cl)cc2c2cc(Cl)cc(Cl)c21)N1C(=O)c2ccccc2C1=O
Kd [3]: 0.127 µM
IC50 (K562 [6]): 44.4 µM
IC50 (SiHa [7]): 83.2 µM
IC50 (HeLa [8]): 89 µM
IC50 [35]: 0.777 µM
IC50 (A2780 [10]): 68.6 µM

Further lines, results first:

Activity [1]: Active
inhibition [5]: > 75%
SMILES: O=C(O)C(Cn1c2ccc(Cl)cc2c2cc(Cl)ccc21)N1C(=O)c2ccccc2C1=O (racemic)

Kd [3]: 0.145 µM
SMILES: O=C(O)C(Cn1c2ccc(I)cc2c2cc(I)ccc21)N1C(=O)c2ccccc2C1=O (racemic) [listing 1 of 2 here]

Activity [1]: 57.9 RU
inhibition [5]: > 75%
Ka [44]: 239000 M⁻¹ s⁻¹
SMILES: O=C(O)C(Cn1c2ccc(I)cc2c2cc(I)ccc21)N1C(=O)c2ccccc2C1=O (racemic) [listing 2 of 2 here]
